Test results as given in patent publication US6444617B1, “Fused-heterocycle dicarboxylic acid diamide derivatives or salts thereof, herbicide and usage thereof” (Nihon Nohyaku Co., Ltd., priority 1998, dated 2002).

Assays:
Format in all cases: in vivo
soybean plant (So) = assay: Test Example 3: phytotoxicity to upland crop plants, treatment before emergence; conditions: dosage 5 kg/ha
In short: (§1)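 A sprayed liquid agent with a prescribed concentration of active compound was applied pre-emergence. Visual phytotoxicity on soybean and wheat was rated by criterion two weeks (14 days) after application, concurrently with the herbicidal assessment.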

wheat (Wh) = assay: as above; conditions: dosage 5 kg/ha
In short: as §1

wheat = assay: Test Example 4: phytotoxicity to upland crop plants, treatment after emergence; conditions: dosage 5 kg/ha, sprayed after emergence, judged 14 days after treatment
In short: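 Post-emergence foliar spray, compound at prescribed concentration, applied at defined leaf stages; weeds plus soybean/wheat grown in soil vats. Read-out: weed-killing rate and crop injury, 14 d post-treatment.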

soybean plant = assay: as above; conditions: dosage 5 kg/ha, sprayed after emergence, judged 14 days after treatment
In short: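 Weeds and soybean grown in soil-filled vats to set leaf stages, then sprayed post-emergence with the compound at a prescribed concentration. Weed-killing rate and crop phytotoxicity judged 14 days after treatment.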

[1] = tested on: monochoria (Monochoria vaginalis Presl); assay: Test Example 2: herbicidal effect on paddy field weeds after emergence; conditions: Dosage 5 kg/ha; one-leaved stage; 21 days after treatment
In short: (§2)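 Weeds were sown in 1/10000 are pots of soil flooded to paddy conditions and grown to the one-leaf stage, then the soil was treated with a solution of compound at a predetermined dosage.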

[2] = tested on: bulrush (Scirpus juncoides Roxb.); assay: as above; conditions: Dosage 5 kg/ha; one-leaved stage; 21 days after treatment
In short: as §2

[3] = tested on: barnyard grass (Echinochloa crus-galli Beauv.); assay: as above; conditions: Dosage 5 kg/ha; one-leaved stage; 21 days after treatment
In short: as §2

[4] = tested on: cocklebur (Xanthium strumarium L.), Xs; assay: Test Example 4: herbicidal effect on upland weeds after emergence; conditions: dosage 5 kg/ha; sprayed after emergence; judged 14 days after treatment
In short: (§3)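 Soil vats; sown weeds + soybean/wheat; spray at leaf-stage, prescribed compound concentration; weed-kill rate judged day 14.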

[5] = tested on: velvetleaf (Abutilon theophtasti L.), At; assay: as above; conditions: dosage 5 kg/ha; sprayed after emergence; judged 14 days after treatment
In short: as §3

[6] = tested on: barnyard grass (Echinochloa crus-galli Beauv.), Ec; assay: as above; conditions: dosage 5 kg/ha; sprayed after emergence; judged 14 days after treatment
In short: as §3

[7] = tested on: bird's eye speedwell (Veronica persica Poir.), Vp; assay: as above; conditions: dosage 5 kg/ha; sprayed after emergence; judged 14 days after treatment
In short: as §3

[8] = tested on: cleavers (Galium aparine L.), Ga; assay: as above; conditions: dosage 5 kg/ha; sprayed after emergence; judged 14 days after treatment
In short: as §3

[9] = tested on: forxtail grass (Alopecurus aequalis var. amurensis Ohwi), Am; assay: as above; conditions: dosage 5 kg/ha; sprayed after emergence; judged 14 days after treatment
In short: as §3

[10] = tested on: cocklebur (Xanthium strumarium L.), Xs; assay: Test Example 3: herbicidal effect on upland weeds before emergence; conditions: dosage 5 kg/ha
In short: (§4)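 Read-out is the weed-killing rate, scored fourteen days after a single spray application made before the weeds emerged. The spray was a liquid agent carrying the active compound at a prescribed dose.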

[11] = tested on: velvetleaf (Abutilon theophtasti L.), At; assay: as above; conditions: dosage 5 kg/ha
In short: as §4

[12] = tested on: barnyard grass (Echinochloa crus-galli Beauv.), Ec; assay: as above; conditions: dosage 5 kg/ha
In short: as §4

[13] = tested on: bird's eye speedwell (Veronica persica Poir.), Vp; assay: as above; conditions: dosage 5 kg/ha
In short: as §4

[14] = tested on: cleavers (Galium aparine L.), Ga; assay: as above; conditions: dosage 5 kg/ha
In short: as §4

[15] = tested on: forxtail grass (Alopecurus aequalis var. amurensis Ohwi), Am; assay: as above; conditions: foxtail grass, dosage 5 kg/ha
In short: as §4

[16] = tested on: bulrush (Scirpus juncoides Roxb.); assay: Test Example 1: herbicidal effect on paddy field weeds before emergence; conditions: Dosage 5 kg/ha
In short: (§5)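 Soil in pots is brought to paddy state and seeded with barnyard grass and bulrush; before germination, the soil receives a predetermined dosage of test compound in solution. After twenty-one days, control rate relative to untreated pots is calculated and graded.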

[17] = tested on: barnyard grass (Echinochloa crus-galli Beauv.); assay: as above; conditions: Dosage 5 kg/ha
In short: as §5

CCCNC(=O)c1nc2cnn(C)c2cc1C(=O)Nc1c(CC)ccc(Cl)c1CC [compound 1173]
5 (Weed-killing rate is 100%.): Post-emergence treatment Monochoria (herbicidal effect) [1] | Post-emergence treatment Bulrush (herbicidal effect) [2] | Post-emergence treatment Barnyard grass (herbicidal effect) [3] | Herbicidal effect Xs [4] | Herbicidal effect At [5] | Herbicidal effect Ec [6] | Herbicidal effect Vp [7] | Herbicidal effect Ga [8] | Herbicidal effect Am [9] | Herbicidal effect Xs [10] | Herbicidal effect At [11] | Herbicidal effect Ec [12] | Herbicidal effect Vp [13] | Herbicidal effect Ga [14] | Herbicidal effect Am [15] | Pre-emergence treatment Bulrush (herbicidal effect) [16] | Pre-emergence treatment Barnyard grass (herbicidal effect) [17]
5 (Crop-killing rate is 100%.): Phytotoxicity So (soybean plant (So)) | Phytotoxicity Wh (wheat (Wh)) | Phytotoxicity Wh (wheat) | Phytotoxicity So (soybean plant)

CCCNC(=O)c1nc2c(C)nn(C)c2cc1C(=O)Nc1c(CC)ccc(Cl)c1CC [compound 1197]
5 (Weed-killing rate is 100%.): Post-emergence treatment Monochoria (herbicidal effect) [1] | Post-emergence treatment Bulrush (herbicidal effect) [2] | Post-emergence treatment Barnyard grass (herbicidal effect) [3] | Herbicidal effect Xs [4] | Herbicidal effect At [5] | Herbicidal effect Ec [6] | Herbicidal effect Vp [7] | Herbicidal effect Ga [8] | Herbicidal effect Am [9] | Herbicidal effect Xs [10] | Herbicidal effect At [11] | Herbicidal effect Ec [12] | Herbicidal effect Vp [13] | Herbicidal effect Ga [14] | Herbicidal effect Am [15] | Pre-emergence treatment Bulrush (herbicidal effect) [16] | Pre-emergence treatment Barnyard grass (herbicidal effect) [17]
5 (Crop-killing rate is 100%.): Phytotoxicity So (soybean plant (So)) | Phytotoxicity Wh (wheat (Wh)) | Phytotoxicity Wh (wheat) | Phytotoxicity So (soybean plant)

CCCNC(=O)c1nc2ncn(C)c2cc1C(=O)Nc1c(CC)ccc(Cl)c1CC [compound 1209]
5 (Weed-killing rate is 100%.): Post-emergence treatment Monochoria (herbicidal effect) [1] | Post-emergence treatment Bulrush (herbicidal effect) [2] | Post-emergence treatment Barnyard grass (herbicidal effect) [3] | Herbicidal effect Xs [4] | Herbicidal effect At [5] | Herbicidal effect Ec [6] | Herbicidal effect Vp [7] | Herbicidal effect Ga [8] | Herbicidal effect Am [9] | Herbicidal effect Xs [10] | Herbicidal effect At [11] | Herbicidal effect Ec [12] | Herbicidal effect Vp [13] | Herbicidal effect Ga [14] | Herbicidal effect Am [15] | Pre-emergence treatment Bulrush (herbicidal effect) [16] | Pre-emergence treatment Barnyard grass (herbicidal effect) [17]
5 (Crop-killing rate is 100%.): Phytotoxicity So (soybean plant (So)) | Phytotoxicity Wh (wheat (Wh)) | Phytotoxicity Wh (wheat) | Phytotoxicity So (soybean plant)

CCCNC(=O)c1nc2nc(C)n(C)c2cc1C(=O)Nc1c(CC)ccc(Cl)c1CC [compound 1233]
5 (Weed-killing rate is 100%.): Post-emergence treatment Monochoria (herbicidal effect) [1] | Post-emergence treatment Bulrush (herbicidal effect) [2] | Post-emergence treatment Barnyard grass (herbicidal effect) [3] | Herbicidal effect Xs [4] | Herbicidal effect At [5] | Herbicidal effect Ec [6] | Herbicidal effect Vp [7] | Herbicidal effect Ga [8] | Herbicidal effect Am [9] | Herbicidal effect Xs [10] | Herbicidal effect At [11] | Herbicidal effect Ec [12] | Herbicidal effect Vp [13] | Herbicidal effect Ga [14] | Herbicidal effect Am [15] | Pre-emergence treatment Bulrush (herbicidal effect) [16] | Pre-emergence treatment Barnyard grass (herbicidal effect) [17]
5 (Crop-killing rate is 100%.): Phytotoxicity So (soybean plant (So)) | Phytotoxicity Wh (wheat (Wh)) | Phytotoxicity Wh (wheat) | Phytotoxicity So (soybean plant)

CCCNC(=O)c1nc2ocnc2cc1C(=O)Nc1c(CC)ccc(Cl)c1CC [compound 1245]
5 (Weed-killing rate is 100%.): Post-emergence treatment Monochoria (herbicidal effect) [1] | Post-emergence treatment Bulrush (herbicidal effect) [2] | Post-emergence treatment Barnyard grass (herbicidal effect) [3] | Herbicidal effect Xs [4] | Herbicidal effect At [5] | Herbicidal effect Ec [6] | Herbicidal effect Vp [7] | Herbicidal effect Ga [8] | Herbicidal effect Am [9] | Herbicidal effect Xs [10] | Herbicidal effect At [11] | Herbicidal effect Ec [12] | Herbicidal effect Vp [13] | Herbicidal effect Ga [14] | Herbicidal effect Am [15] | Pre-emergence treatment Bulrush (herbicidal effect) [16] | Pre-emergence treatment Barnyard grass (herbicidal effect) [17]
5 (Crop-killing rate is 100%.): Phytotoxicity So (soybean plant (So)) | Phytotoxicity Wh (wheat (Wh)) | Phytotoxicity Wh (wheat) | Phytotoxicity So (soybean plant)
